Structures can show the parent of a compound that is named as a salt.
| Compound | melting point [°C] |
| --- | --- |
| N=C(N)c1ccc(OCCCCn2ccn(CCCCOc3ccc(C(=N)N)cc3)c2=N)cc1 (as salt: hydrochloride) [compound 36, 4-[4-[3-[4-(4-carbamimidoylphenoxy)butyl]-2-imino-imidazol-1-yl]butoxy]benzamidine] | 178 to 180 |
| N=C(N)c1ccc(OCCCCCn2ccn(CCOc3ccc(C(=N)N)cc3)c2=N)cc1 (as salt: hydrochloride) [compound 93] | 183 to 187 |
| N=C(N)c1ccc(OCCCn2ccn(CCCSc3ccc(C(=N)N)cc3)c2=N)cc1 (as salt: hydrochloride) [compound 173] | 168 to 171 |
| N=C(NCCOCc1ccc(C(=N)N)cc1)NCCOCc1ccc(C(=N)N)cc1 (as salt: hydrochloride) [compound 226] | 262 to 267 |
| N/C(=N\O)c1ccc(OCCCn2ccn(CCCOc3ccc(/C(N)=N/O)cc3)c2=NC(=O)C(F)(F)F)cc1 [compound 55, N-[1,3-bis[3-[4-[N′-hydroxycarbamimidoyl]phenoxy]propyl]-1,3-dihydro-2H-imidazol-2-ylidene]-2,2,2-trifluoroacetamide] | 187 to 201 |

— US10111437B2, “Substituted guanidines as fungicides” (Nippon Soda Co., Ltd., priority 2015, dated 2018)
